Experimental data published in paper PMC12036814 (Angewandte Chemie (International Ed. in English), 2025).

Experiments:
[1] = test system: periodontal ligament cell line (PDL‐hTERT); assay: Whole proteome analysis and pathway analysis of treated PDL-hTERT cells; format: cell-based, human; parameters: dose or concentration left out as unconfirmed; conditions: […] μM, 3 days, versus vehicle
[2] = test system: AIFM1 knockout HEK293 cells; assay: Whole proteome analysis of AIFM1 knockout HEK293 cells; format: cell-based, human; parameters: dose or concentration left out as unconfirmed; conditions: […] μM, 3 days, versus vehicle-treated AIFM1 knockout cells
[3] = biological target: T1, AIFM1 (Homo sapiens, UniProt O95831); assay: Gel-based labelling of recombinant AIFM1 spiked into HEK-293 lysate; format: binding; conditions: excess compound added prior to probe
T1 construct: made in house; host or cells: E. coli Rosetta2
T1 sequence (O95831 102-613): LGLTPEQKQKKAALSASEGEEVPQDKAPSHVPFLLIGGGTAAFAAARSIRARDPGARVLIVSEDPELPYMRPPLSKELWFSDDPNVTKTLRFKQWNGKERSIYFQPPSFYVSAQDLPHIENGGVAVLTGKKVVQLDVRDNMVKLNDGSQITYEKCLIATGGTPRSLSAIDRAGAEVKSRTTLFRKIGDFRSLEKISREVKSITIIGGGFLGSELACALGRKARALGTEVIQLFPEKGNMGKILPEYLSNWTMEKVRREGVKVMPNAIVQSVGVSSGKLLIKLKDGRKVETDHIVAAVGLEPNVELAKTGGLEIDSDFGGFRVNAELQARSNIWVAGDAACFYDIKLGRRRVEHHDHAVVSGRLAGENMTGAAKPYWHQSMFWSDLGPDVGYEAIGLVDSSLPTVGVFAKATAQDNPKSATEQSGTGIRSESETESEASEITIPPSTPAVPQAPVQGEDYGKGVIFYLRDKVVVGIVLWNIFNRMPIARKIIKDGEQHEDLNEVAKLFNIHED
Method: AIFM1 expression & purification
Recombinant AIFM1 was expressed in a Rosetta2 E. coli strain. Bacterial growth was conducted in LB media supplemented with riboflavin and FAD shaking at 37°C and 180 rpm. Expression was induced with 1.0 mM IPTG and incubated for further 16 h before harvesting. Cells were harvested on ice in PBS and cell pellets stored at -20°C. Cells were lysed by French press and the 6xHis-tagged constructs were purified by Immobilized Metal Affinity Chromatography using Ni Sepharose (6 Fast Flow, GE). The centrifugation-cleared bacterial lysate was bound to beads in binding buffer (200 mM NaCl, 20 mM Tris/Cl pH = 7.4). […]
For gel-based fluorescence labelling of recombinant AIFM1, 1.7 µM recombinant protein was spiked - in to PBS or PBS -diluted HEK293 cell lysate ( 100 µg per reaction sample). […]
Click Master-mix (8 µL, 100 µM TAMRA-azide, Baseclick, Neuried, Germany, Cat# BCFA-008-10, 500 µM BTTAA ligand, Jena Bioscience, Jena, Germany, CLK -067, 1 mM CuSO4) was added and the CuAAC reaction started by addition of 2 µL of aq. sodium ascorbate (c end= 2 mM). […] Fluorescence scanning was performed using a Las-3000 fluorescence darkbox (Fujifilm, Minato, Japan) with a Fujinon VRF 43LMD Lens, 605DF40 filter and 520 nm EPI excitation wavelength and loading controls were developed with Coomassie stain afterwards. […]

For `O=C(O)c1cn(C2CC2)c2cc(N3CCNCC3)c(F)cc2c1=O` [Ciprofloxacin], the “regulation of ETC complex I and IV subunits” value [1] was “significant down‐regulation of complex I (blue) and complex IV (green) subunits of the ETC”, the “regulation of ETC subunits in AIFM1 knockout cells” value [2] was “only minor additional alterations of ETC subunits” and the “competition of Cipro P1 labelling of recombinant AIFM1” value [3] was “strong reduction of signal intensity”.
